Measurements: ChEMBL document CHEMBL3045203, “Synthesis and biological evaluation of some N4-substituted 5-nitroisatin-3-thiosemicarbazones” (Med Chem Res, 2012)
Calls of active or inactive are those of the source. No cut-off for these calls is given here.

Tests used:
Homo sapiens [1] = species on record: Homo sapiens; assay: Inhibition of […] urease using urea as substrate at 0.1 uM preincubated for 5 min before substrate addition measured after 10 min relative to control
Nakaseomyces glabratus = assay: Antifungal activity against Candida glabrata at 200 ug/ml after 7 days; type: functional; conditions: 168 h
[2] = Toxicity inArtemia salina (brine shrimp) larvae assessed as mortality after 24 hr; type: organism-based; conditions: artemia salina, in vivo; read-out: LD50
Lemna aequinoctialis [3] = assay: Phytotoxicity against Lemna aequinoctialis assessed as growth inhibition at 10 ug/ml; type: functional; conditions: read-out: GI
Lemna aequinoctialis [4] = assay: Phytotoxicity against Lemna aequinoctialis assessed as growth inhibition at 100 ug/ml; type: functional; conditions: read-out: GI
Aspergillus flavus = assay: Antifungal activity against Aspergillus flavus at 200 ug/ml after 7 days; type: functional; conditions: 168 h
Homo sapiens [5] = species on record: Homo sapiens; assay: Inhibition of […] urease using urea as substrate at 0.01 uM preincubated for 5 min before substrate addition measured after 10 min relative to control
Lemna aequinoctialis [6] = assay: Phytotoxicity against Lemna aequinoctialis assessed as growth inhibition at 1000 ug/ml; type: functional; conditions: read-out: GI
Candida albicans = assay: Antifungal activity against Candida albicans at 200 ug/ml after 7 days; type: functional; conditions: 168 h
Homo sapiens [7] = species on record: Homo sapiens; assay: Inhibition of […] urease using urea as substrate at 1 uM preincubated for 5 min before substrate addition measured after 10 min relative to control
Homo sapiens [8] = species on record: Homo sapiens; assay: Inhibition of […] urease using urea as substrate at 100 uM preincubated for 5 min before substrate addition measured after 10 min relative to control
Microsporum canis = assay: Antifungal activity against Arthroderma otae at 200 ug/ml after 7 days; type: functional; conditions: 168 h
Fusarium solani = assay: Antifungal activity against Fusarium solani at 200 ug/ml after 7 days; type: functional; conditions: 168 h
Homo sapiens [9] = species on record: Homo sapiens; assay: Inhibition of […] urease using urea as substrate at 10 uM preincubated for 5 min before substrate addition measured after 10 min relative to control
[10] = Inhibition of […] urease using urea as substrate preincubated for 5 min before substrate addition measured after 10 min
Homo sapiens [11] = species on record: Homo sapiens; assay: Increase of […] urease using urea as substrate at 0.01 uM preincubated for 5 min before substrate addition measured after 10 min relative to control
Homo sapiens [12] = species on record: Homo sapiens; assay: Increase of […] urease using urea as substrate at 1 uM preincubated for 5 min before substrate addition measured after 10 min relative to control
Homo sapiens [13] = species on record: Homo sapiens; assay: Increase of […] urease using urea as substrate at 0.1 uM preincubated for 5 min before substrate addition measured after 10 min relative to control
Homo sapiens [14] = species on record: Homo sapiens; assay: Increase of […] urease using urea as substrate at 100 uM preincubated for 5 min before substrate addition measured after 10 min relative to control
Homo sapiens [15] = species on record: Homo sapiens; assay: Increase of […] urease using urea as substrate at 10 uM preincubated for 5 min before substrate addition measured after 10 min relative to control
Lemna aequinoctialis [16] = assay: Phytotoxicity against Lemna aequinoctialis assessed as growth inhibition at 0.015 ug/ml; type: functional; conditions: read-out: GI
Lemna aequinoctialis [17] = assay: Phytotoxicity against Lemna aequinoctialis assessed as growth inhibition at 50 ug/ml; type: functional; conditions: read-out: GI
Lemna aequinoctialis [18] = assay: Phytotoxicity against Lemna aequinoctialis assessed as growth inhibition at 500 ug/ml; type: functional; conditions: read-out: GI
Lemna aequinoctialis [19] = assay: Phytotoxicity against Lemna aequinoctialis assessed as growth inhibition at 5 ug/ml; type: functional; conditions: read-out: GI

SMILES | inhibition (Homo sapiens [1]) | inhibition at 200 µg/mL (Nakaseomyces glabratus) [%] | LC50 at 24 h [2] [µM] | inhibition of growth at 10 µg/mL (Lemna aequinoctialis [3]) [%] | inhibition of growth at 100 µg/mL (Lemna aequinoctialis [4]) [%] | inhibition at 200 µg/mL (Aspergillus flavus) [%] | inhibition (Homo sapiens [5]) [%] | inhibition of growth at 1000 µg/mL (Lemna aequinoctialis [6]) [%] | inhibition at 200 µg/mL (Candida albicans) [%] | inhibition (Homo sapiens [7]) [%] | inhibition (Homo sapiens [8]) [%] | inhibition at 200 µg/mL (Microsporum canis) [%] | inhibition at 200 µg/mL (Fusarium solani) [%] | inhibition (Homo sapiens [9]) | further results
COc1ccc(OC)c(NC(=S)N/N=C2\C(=O)Nc3ccc([N+](=O)[O-])cc32)c1 | 25.9% | 0 | > 1240 | 25 | 30 | 40 | 34.5 | 35 | 0 | 15.6 | 11 | 20 | 0 | 17.8% | 
O=C1Nc2ccc([N+](=O)[O-])cc2/C1=N/NC(=S)Nc1ccccc1C(F)(F)F | 23% | 0 | > 1220 | 10 | 15 | 0 | 21.6 | 25 | 0 | 30.9 | 21 | 20 | 0 | 20.9% | 
O=C1Nc2ccc([N+](=O)[O-])cc2/C1=N/NC(=S)Nc1ccc(Br)cc1 | 4.5% | 0 | > 1190 | 10 | 15 | 20 | 18.9 | 20 | 0 | 6.6 | 4 | 0 | 0 | 8% | 
COc1ccc(NC(=S)N/N=C2\C(=O)Nc3ccc([N+](=O)[O-])cc32)c(OC)c1 | 66.8% | 0 | > 1240 | 15 | 25 | 20 | 68 | 30 | 0 | 61 | 37.9 | 20 | 0 | 53.5% | IC50 [10]: 27.9 µM
O=C1Nc2ccc([N+](=O)[O-])cc2/C1=N/NC(=S)Nc1ccc(F)cc1 |  | 0 | > 1390 | 5 | 15 | 0 |  | 20 | 0 |  |  | 20 | 20 |  | Activity (Homo sapiens [11]): inactive; Activity (Homo sapiens [12]): inactive; Activity (Homo sapiens [13]): inactive; Activity (Homo sapiens [14]): inactive; Activity (Homo sapiens [15]): inactive
Cc1ccc(NC(=S)N/N=C2\C(=O)Nc3ccc([N+](=O)[O-])cc32)cc1 | inactive | 0 | > 1400 | 15 | 20 | 30 | 8 | 30 | 0 | 4 | 7 | 40 | 30 | 4% | 
N#Cc1cccc(NC(=S)N/N=C2\C(=O)Nc3ccc([N+](=O)[O-])cc32)c1 | 16% | 0 | 1160 | 5 | 15 | 20 | 20.7 | 25 | 0 | 1.8 | 8.9 | 20 | 15 | 12.6% | 
C[n+]1ccc(-c2cc[n+](C)cc2)cc1 [PARAQUAT] |  |  |  |  |  |  |  |  |  |  |  |  |  |  | inhibition of growth at 0.015 µg/mL (Lemna aequinoctialis [16]): 100%
O=C1Nc2ccc([N+](=O)[O-])cc2/C1=N/NC(=S)Nc1ccccc1 | 5.8% | 0 | > 1470 |  |  | 20 | 8.8 |  | 0 | 0.65 | 6 | 0 | 0 | inactive | inhibition of growth at 50 µg/mL (Lemna aequinoctialis [17]): 10%; inhibition of growth at 500 µg/mL (Lemna aequinoctialis [18]): 20%; inhibition of growth at 5 µg/mL (Lemna aequinoctialis [19]): 5%
O=C1Nc2ccc([N+](=O)[O-])cc2/C1=N/NC(=S)Nc1ccc(I)cc1 | 51% | 0 | > 1070 | 5 | 10 | 0 | 57 | 25 | 0 | 52 | 50 | 0 | 0 | 47% | IC50 [10]: 0.901 µM
Cc1cccc(NC(=S)N/N=C2\C(=O)Nc3ccc([N+](=O)[O-])cc32)c1 | 5.8% | 0 | > 1400 | 10 | 20 | 0 | 6.5 | 25 | 0 | 13.9 | 34 | 0 | 30 | 22% | 
C=CCNC(=S)N/N=C1\C(=O)Nc2ccc([N+](=O)[O-])cc21 | 15% | 0 | > 1630 | 25 | 35 | 0 | 21.6 | 50 | 0 | 12 | 15.9 | 20 | 0 | 8% | 
COc1ccc(NC(=S)N/N=C2\C(=O)Nc3ccc([N+](=O)[O-])cc32)cc1 | 44% | 0 | > 1340 | 10 | 15 | 20 | 47.6 | 25 | 0 | 33.6 | 46.6 | 0 | 0 | 38.6% | 
CCCCCCNC(=S)N/N=C1\C(=O)Nc2ccc([N+](=O)[O-])cc21 | 58% | 0 | > 1430 | 25 | 35 | 0 | 60 | 60 | 0 | 37 | 40.9 | 50 | 0 | 27% | IC50 [10]: 0.44 µM
NC(N)=S [THIOUREA] | 14.5% |  |  |  |  |  | 8.16 |  |  | 20.9 | 94.3 |  |  | 8.09% | IC50 [10]: 50.1 µM
